Results: patent publication EP3494998A1, “GLYCOSYLATED PSMA INHIBITORS FOR IMAGING AND ENDORADIOTHERAPY” (Technische Universität München, priority 2017, dated 2019)
Read-outs that look alike come from different tables or passages of the source.

Assays:
LNCaP cells [1] = test: cell surface binding and internalization in LNCaP cells; format: cell-based, human; conditions: for Internalization [%]: normalized to reference ([125I]I-BA)KuE, corrected for unspecific binding, c = 0.2 nM for 68Ga and 0.5 nM for 177Lu compounds, 37°C, 1 h, 125,000 cells/well, mean ± SD (n = 3); for internalized fraction of total applied activity: 60 min incubation, not normalized, 0.2 nM (68Ga) or 0.5 nM (177Lu)
Procedure: One day (24h ± 2h) prior to all experiments with LNCaP cells, the cultivated cells were harvested using a mixture of trypsin/ethylendiaminetetraacetate (0.05%/ 0.02%) and phosphate buffered saline and centrifuged. After centrifugation, the supernatant was disposed and the cell pellet resuspended in culture medium. Afterwards, cells were counted with a hemocytometer (Neubauer) and seeded in 24-well plates. […]
To differentiate between the cell surface bound and internalized fraction, a PMPA-wash (1.0 µM) was performed to remove the specifically bound radioligand.

PSMA [2] = target: T1, PSMA (Homo sapiens, UniProt Q04609); conditions: PSMA I&T (18), values taken from a previous publication (Weineisen 2014), same binding assay; cited from earlier work
T1 construct: PSMA-positive LNCAP cells (200265; Cell Lines Service GmbH) were cultivated; host or cells: LNCaP human prostate cancer cells

LNCaP tumor xenografts = test: µPET imaging in mice bearing LNCaP tumor xenografts; conditions: 85 min p.i.; dynamic µPET; LNCaP xenograft
Procedure: For the tumor model, LNCaP cells (approx. 10^7 cells) were suspended 1:1 in serum-free DMEM-F12 medium and Matrigel (BD Biosciences, Germany) and inoculated onto the right shoulder of male, 6 to 8 weeks old CB-17 SCID mice (Charles River Laboratories, Sulzfeld, Germany). Animals were used after the tumor size reached 4 to 8 mm in diameter for experiments.
Imaging experiments were conducted using a Siemens Inveon small animal PET and data analyzed by the associated Inveon Research Workplace software. […] Dynamic imaging was carried out after on-bed injection for 90 min. The static blockade image was obtained, after 1 h p.i. with 15 min acquisition time. Blockade was done by coinjection of 8mg/kg of PMPA. All images were reconstructed using an OSEM3D algorithm without scanner and attenuation correction.
Over a period of 90 min, comparative dynamic µPET scans were performed with ^68Ga-13 and ^68Ga-18 in CB-17 SCID mice bearing LNCaP tumor xenografts to assess the kinetic tissue distribution.

LNCaP cells [3] = conditions: PSMA I&T (18), data from a previous publication (Weineisen 2014), normalized to ([125I]I-BA)KuE, 60 min, cited from earlier work
[4] = target: human serum albumin (HSA) (Homo sapiens, UniProt P02768); test: HSA binding by HPLC on a column with immobilized human albumin; conditions: natGa- and natLu-labeled inhibitors; HPLC retention time with non-linear regression calibration on nine reference substances
Source text: The Fmoc-(9-fluorenylmethoxycarbonyl-) and all other protected amino acid analogs were purchased from Bachem (Bubendorf, Switzerland) or Iris Biotech (Marktredwitz, Germany). Dr. Schottelius from the laboratory of Prof. […] The tritylchloride polystyrene (TCP) resin was obtained from PepChem (Tubingen, Germany). Chematech (Dijon, France) delivered the chelator DOTAGA-anhydride. All necessary solvents and other organic reagents were purchased from either Alfa Aesar (Karlsruhe, Germany), Sigma-Aldrich (Munich, Germany) or VWR (Darmstadt, Germany). Solid phase synthesis of the peptides was carried out by manual operation using an Intelli-Mixer syringe shaker (Neolab, Heidelberg, Germany). […] Analysis of the peptides was performed by applying different gradients of 0.1% (v/v) trifluoroacetic acid (TFA) in H2O (solvent A) and 0.1% TFA (v/v) in acetonitrile (MeCN) (solvent B) with a constant flow of 1 mL/min (specific gradients are cited in the text). […] Human serum albumin (HSA) binding was determined using a Chiralpak HSA 50 x 3 mm 5µm Analytical Column connected to a Chiralpak HSA 10 x 3 mm 5µm Guard Cartridge (Daicel Chemical Industries) purchased from Chiral Technologies Europe (France). Non-linear regression for the HSA binding was performed using OriginPro 2016G. Both retention times tR as well as the capacity factors K' are cited in the text. Preparative RP-HPLC of the peptides was achieved on a Shimadzu HPLC system using a Multospher 100 RP 18-5 (250 x 20 mm) column (CS GmbH, Langerwehe, Germany) with a constant flow of 5 mL/min. […] Radioactivity was detected through connection of the outlet of the UV-photometer to a Nal(TI) well-type scintillation counter from EG&G Ortec (Munich, Germany). […] ESI-mass spectra were acquired on an expression^L CMS mass spectrometer (Advion Ltd., Harlow, UK) and on a Varian 500-MS IT mass spectrometer (Agilent Technologies, Santa Clara, USA). For the HSA binding experiment a Chiralpak HSA 50 x 3 mm 5µm Analytical Column, (Daicel Chemical Industries, LTD) connected to a Chiralpak HSA 10 x 3 mm 5µm Guard Cartridge (Daicel Chemical Industries; Chiral Technologies Europe) was used. Blood samples were collected from volunteers.
The mobile phase consisted of a binary gradient system with a constant total flow rate of 0.5mL/min. Mobile phase A was a 50 mM pH 6.9 ammonium acetate solution, mobile phase B was 2-Propanol (HPLC grade, VWR, Germany). The gradient, of mobile phase A was 100% from 0 to 3 min and from 3 min to the end of each run, mobile phase B was set 20%. […] Afterwards, the actual PSMA inhibitors with unknown HSA binding were measured. More details are found in the supplementary info.
To diminish the influence of temperature and small pH fluctuations of the NH4OAc buffer on binding (retention time), a set of nine substances with known HSA binding coefficients was used to establish a calibration line by non-linear regression (log retention time vs. log HSA [%] binding).

PSMA [5] = target: T1, PSMA; test: competitive binding assay (IC50) on LNCaP cells with ([125I]I-BA)KuE as radioligand; conditions: LNCaP cells (150,000/well); ([125I]I-BA)KuE (c = 0.2 nM) as radioligand; HBSS (1% BSA), 4°C, 1 h; natGa or natLu analogs; mean ± SD (n = 3)
Procedure: One day (24h ± 2h) prior to all experiments with LNCaP cells, the cultivated cells were harvested using a mixture of trypsin/ethylendiaminetetraacetate (0.05%/ 0.02%) and phosphate buffered saline and centrifuged. After centrifugation, the supernatant was disposed and the cell pellet resuspended in culture medium. Afterwards, cells were counted with a hemocytometer (Neubauer) and seeded in 24-well plates.
Cells were incubated in HBSS (1% BSA) at 4°C for 1 h.

[6] = lipophilicity (logP), shake flask method; format: physicochemical; conditions: n-octanol and PBS (pH 7.4); radiolabeled compounds; mean ± SD (n = 6)
Procedure: The logP values were determined as described (Weineisen, M., et al., Synthesis and preclinical evaluation of DOTAGA-conjugated PSMA ligands for functional imaging and endoradiotherapy of prostate cancer. EJNMMI research, 2014. 4(1): p. 1). The experimental details are described in the supplementary info.
The determination of the logP was used to assess lipophilicity. The values for the respective radiolabeled compounds from Table 2 were obtained using the shake flask method (n = 6) in n-octanol and PBS (pH 7.4). […] For all compounds, the respective ^177Lu-labeled analog was more lipophilic than the ^68Ga-labeled counterpart.

T1 sequence (Q04609 whole entry): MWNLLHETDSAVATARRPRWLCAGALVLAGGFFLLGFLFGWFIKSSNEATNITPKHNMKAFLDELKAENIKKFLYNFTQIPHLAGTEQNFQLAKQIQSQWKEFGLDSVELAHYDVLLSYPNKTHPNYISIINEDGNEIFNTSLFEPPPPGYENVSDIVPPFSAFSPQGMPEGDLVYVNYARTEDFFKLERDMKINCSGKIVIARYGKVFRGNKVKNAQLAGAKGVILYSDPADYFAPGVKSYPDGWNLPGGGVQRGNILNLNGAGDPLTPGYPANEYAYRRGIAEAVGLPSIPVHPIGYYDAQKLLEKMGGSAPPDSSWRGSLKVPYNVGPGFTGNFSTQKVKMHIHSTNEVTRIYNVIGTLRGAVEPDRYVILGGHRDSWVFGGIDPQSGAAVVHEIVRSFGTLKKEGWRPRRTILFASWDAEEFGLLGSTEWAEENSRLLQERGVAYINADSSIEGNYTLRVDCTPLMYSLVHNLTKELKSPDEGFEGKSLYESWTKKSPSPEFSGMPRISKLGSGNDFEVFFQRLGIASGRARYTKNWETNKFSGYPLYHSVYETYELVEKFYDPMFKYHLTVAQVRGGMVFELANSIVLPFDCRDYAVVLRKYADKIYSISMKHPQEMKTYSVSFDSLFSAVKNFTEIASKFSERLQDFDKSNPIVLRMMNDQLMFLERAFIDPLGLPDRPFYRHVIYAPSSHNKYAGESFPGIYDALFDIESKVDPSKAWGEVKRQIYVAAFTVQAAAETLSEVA
Sequence of human serum albumin (HSA) (P02768 25-609): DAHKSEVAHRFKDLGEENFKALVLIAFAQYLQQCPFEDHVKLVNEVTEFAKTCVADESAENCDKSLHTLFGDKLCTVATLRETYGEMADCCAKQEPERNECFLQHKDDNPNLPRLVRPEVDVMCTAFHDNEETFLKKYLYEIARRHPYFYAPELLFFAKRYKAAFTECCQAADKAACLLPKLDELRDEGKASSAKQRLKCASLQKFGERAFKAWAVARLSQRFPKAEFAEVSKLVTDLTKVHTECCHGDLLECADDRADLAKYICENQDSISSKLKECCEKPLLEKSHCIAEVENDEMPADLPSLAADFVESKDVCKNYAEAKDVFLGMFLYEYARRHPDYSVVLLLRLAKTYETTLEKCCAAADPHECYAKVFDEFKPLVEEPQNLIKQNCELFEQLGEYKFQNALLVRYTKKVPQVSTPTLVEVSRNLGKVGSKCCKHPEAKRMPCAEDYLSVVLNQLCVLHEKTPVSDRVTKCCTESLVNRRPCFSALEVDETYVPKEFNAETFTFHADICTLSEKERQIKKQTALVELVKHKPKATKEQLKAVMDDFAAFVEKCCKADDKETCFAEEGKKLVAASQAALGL
Procedure for human blood samples: Separation of the different blood cells was accomplished by stepwise centrifugation. Erythrocytes were gained after centrifugation at 700 g (1,400 rpm, Biofuge 15, Heraus Sepatech, Osterode, Germany) for 5 min and the pellet was rinsed with 500 µL of ice-cold PBS and again centrifuged. Leukocytes were gained by combination of the supernatant and subsequent centrifugation at 3,100 g (6,200 rpm) with a further washing step with 500 µL of ice-cold PBS and repeated centrifugation. The activities of the pellets (erythrocytes and leukocytes) and the supernatant were measured in a γ-counter. PSMA specific binding was determined by co-incubation with PMPA solution (100 µM).
In addition, 1.0 MBq of the used radiolabeled PSMA ligands were incubated in the presence of PMPA solution (100 µM) to differentiate between specific and unspecific binding.

Substance | Internalization [%] (LNCaP cells [1]) | HSA [%] [4] [%] | IC50 (PSMA [5]) [nM] | logP [6] | also measured
PSMA I&T Galactose [compound 13] | 18.7% ± 4.1% | – | – | – | –
[^68Ga]PSMA I&T [^nat/68Ga-18] | – | 48.7 | – | – | IC50 (PSMA [2]): 9.4 ± 2.9 nM; tumor accumulation (LNCaP tumor xenografts): 5.8 ± 0.3 %ID/mL; Internalization [%] (LNCaP cells [3]): 59.2 ± 1.7%; Internalization [%] (LNCaP cells [3]; listed as [^68Ga]PSMA I&T): 59.2% ± 1.7%
[^177Lu]PSMA I&T [^nat/177Lu-18] | – | 78.6 | – | – | Binding to erythrocytes (human blood samples; simultaneous incubation with PMPA (100 µM)): 29.2%; leukocyte fraction (human blood samples; with PMPA (100 µM)): 0.2%; supernatant (human blood samples; with PMPA (100 µM)): 70.7%; Binding to erythrocytes (human blood samples; without PMPA): 38.9%; leukocyte fraction (human blood samples; without PMPA): 0.1%; supernatant (human blood samples; without PMPA): 61.1%; IC50 (PSMA [2]): 7.9 ± 2.4 nM; Internalization [%] (LNCaP cells [3]): 75.5 ± 1.6%
[^natGa]PSMA I&T Cellubiose [^nat/68Ga-15] | 4.0 ± 0.6% | – | 10.8 ± 1.7 | – | internalized fraction of total applied activity (LNCaP cells [1]): 1.3%
[^natGa]PSMA I&T Galactose [^nat/68Ga-13] | 18.7 ± 4.1% | 7.7 | – | -4.15 ± 0.07 | –
[^natGa]PSMA I&T Mannose [^nat/68Ga-14] | 8.4 ± 0.2% | – | 7.1 ± 0.3 | -4.01 ± 0.08 | –
[^natLu]PSMA I&T Cellobiose [^nat/177Lu-15] | 22.3 ± 1.2% | 19.9 | 12.5 ± 2.3 | -4.04 ± 0.1 | –
[^natLu]PSMA I&T Galactose [^nat/177Lu-13] | 60.2 ± 2.8% | 23.3 | 5.8 ± 0.6 | -3.95 ± 0.12 | internalized fraction of total applied activity (LNCaP cells [1]): 11.3%
[^natLu]PSMA I&T Mannose [^nat/177Lu-14] | 35.3 ± 2.9% | – | 5.9 ± 0.5 | -3.85 ± 0.04 | –
